Assay results published in US20140023611A1 (priority 2010, published 2014).

Assays:
[1] = test system: uptake of phosphate from the intestine; test: In vivo assay: bolus phosphorus (phosphate) challenge; set-up: species or system Sprague-Dawley rats; settings: Structure (V) examples, Table 4, rat; for Serum increase [Pi] mg/dL from baseline low PI state: mean ± SD
Experimental: (§1) By pretreating animals with a low phosphorus diet followed by the subsequent dosing of a phosphorus bolus, serum phosphorus levels were monitored after 30 minutes as a surrogate for intestinal phosphorus absorption. […] The in vivo bolus phosphorus challenge model used here mimics this model in rats.
Male, 7-week-old Sprague-Dawley rats (Charles-River laboratories international, Hollister, Calif.) were allowed to acclimatize for a minimum of 3 days before switching to a synthetic low-phosphorus diet (TD.85010, Harlan Teklad, Madison, Wis.) which contains 0.1% phosphorus and 0.6% calcium. At day 5, testing compounds or vehicle alone (as indicated) were orally administered at the indicated dose in a volume of 5 ml/kg, followed by a bolus gavage of monobasic sodium phosphate (1 mmol in 1 ml) 15 min after compound dosing. Serum was collected via retroorbital bleeding 30 min post phosphate bolus and phosphate levels were determined utilizing an ACE ALERA blood chemistry analyzer (Alfa Wassermann Diagnostic Technologies, West Caldwell, N.J.). […]
Male, 7-week-old Sprague-Dawley rats (Charles-River laboratories international, Hollister, Calif.) were allowed to acclimate for a minimum of 3 days before switching to a synthetic low-phosphorus diet (TD.85010, Harlan Teklad, Madison, Wis.) which contains 0.1% phosphorus and 0.6% calcium. At day 5, testing compounds or vehicle alone (as indicated) were orally administered at the indicated dose in a volume of 5 ml/kg, followed by a bolus gavage of monobasic sodium phosphate (1 mmol in 1 ml) 15 min after compound dosing. Serum was collected via retroorbital bleeding 30 min post phosphate bolus and phosphate levels were determined utilizing an ACE ALERA blood chemistry analyzer (Alfa Wassermann Diagnostic Technologies, West Caldwell, N.J.).
Serum was collected 30 minutes after gavage, and phosphate levels measured. […] The in vivo bolus phosphate challenge model used here mimics this model in rats.
Male, 7-week-old Sprague-Dawley rats (Charles-River laboratories international, Hollister, Calif.) were allowed to acclimatize for a minimum of 3 days before switching to a low-phosphorus diet (TD.85010, Harlan Teklad, Madison, Wis.) which contains 0.1% phosphorus and 0.6% calcium. At day 5, testing compounds or vehicle alone (as indicated) were orally administered at the indicated dose in a volume of 5 ml/kg, followed by a bolus gavage of monobasic sodium phosphate (1 mmol in 1 ml) 15 min after compound dosing. Serum was collected via retroorbital bleeding 30 min post phosphate bolus and serum phosphate levels were determined utilizing an ACE ALERA blood chemistry analyzer (Alfa Wassermann Diagnostic Technologies, West Caldwell, N.J.).
The representative data on effects of test compounds on serum phosphate levels are shown in Table 4 (data are expressed as mean±SD, with 6 animals per data point). The differences between groups were evaluated by one-way analysis of variance with Dunnett's post hoc tests.

[2] = test system: Uptake of Phosphorus from the Intestine; test: In vivo bolus phosphorus challenge; set-up: species or system rat; settings: Sprague-Dawley rats on low-phosphorus diet; oral Drug Dose 30, 15 min before phosphate bolus; serum 30 min post bolus
Experimental: as §1
Male, 7-week-old Sprague-Dawley rats (Charles-River laboratories international, Hollister, Calif.) were allowed to acclimatize for a minimum of 3 days before switching to a synthetic low-phosphorus diet (TD.85010, Harlan Teklad, Madison, Wis.) which contains 0.1% phosphorus and 0.6% calcium. At day 5, testing compounds or vehicle alone (as indicated) were orally administered at the indicated dose in a volume of 5 ml/kg, followed by a bolus gavage of monobasic sodium phosphate (1 mmol in 1 ml) 15 min after compound dosing. Serum was collected via retroorbital bleeding 30 min post phosphate bolus and phosphate levels were determined utilizing an ACE ALERA blood chemistry analyzer (Alfa Wassermann Diagnostic Technologies, West Caldwell, N.J.).
The extent of inhibition by test compounds on the elevation of serum phosphate levels in response to the bolus of phosphorus is shown in Table 12 (data are expressed as % Inhibition, with 6-10 animals per data point). The differences between groups were evaluated by one-way analysis of variance with Dunnett's post hoc tests.

[3] = oral 30 mg/kg, vehicle 5.0 ± 1.3

Row | Structure (SMILES) | % Decrease in serum [Pi] ([1]; oral 30 mg/kg) | Serum increase [Pi] mg/dL from baseline low PI state [1, 3] | % Inhibition of Serum P elevation [2] | % Decrease in serum [Pi] ([1]; oral 10 mg/kg) | Serum increase [Pi] mg/dL from baseline low PI state ([1]; oral 10 mg/kg)
1 | COCCNC(=O)CCSCc1cccc(C(=O)Nc2ccc(N3CCCCC3)cc2C(=O)N/N=C/c2ccc(Cl)c(C(F)(F)F)c2)c1 [Ex. 49, (E)-N-(2-(2-(4-chloro-3-(trifluoromethyl)benzylidene)hydrazinecarbonyl)-4-(piperidin-1-yl)phenyl)-3-((3-(2-methoxyethylamino)-3-oxopropylthio)methyl)benzamide] | 24% | 3.8 ± 0.8 mg/dL |  |  | 
2 | CN(CCN1CCOCC1)C(=O)c1cccc(C(=O)Nc2ccc(N3CCCCC3)cc2-c2cc(C(=O)NCc3cccc(C(F)(F)F)c3)ccn2)c1 [Example 80, N1-Methyl-N1-(2-morpholinoethyl)-N3-(4-(piperidin-1-yl)-2-(4-((3-(trifluoromethyl)benzyl)carbamoyl)pyridin-2-yl)phenyl)isophthalamide] |  |  | 20-30% |  | 
3 | O=C(NCCN1CCOCC1)c1cccc(C(=O)Nc2ccc(N3CCCCC3)cc2C(=O)N/N=C/c2ccc(Cl)c(C(F)(F)F)c2)c1 [Ex. 53, (E)-N^1-(2-(2-(4-chloro-3-(trifluoromethyl)benzylidene)hydrazinecarbonyl)-4-(piperidin-1-yl)phenyl)-N3-(2-morpholinoethyl)isophthalamide] | 79% | 1.1 ± 0.8 mg/dL |  | 62% | 1.9 ± 1.1 mg/dL
